Experimental data from ChEMBL document CHEMBL5241066, “Research progress of MEK1/2 inhibitors and degraders in the treatment of cancer” (Eur J Med Chem, 2021).

System: KE-37
Test: Anticancer activity against human KE-37 cells assessed as reduction in cell viability
Format: functional, cell-based

SMILES: C=CCc1cccc(/C=N/NC(=O)CN2CCN(Cc3ccccc3)CC2)c1O [PAC-1]
- IC50: 242 nM
